Results: US8148112B2, “Sugar chain containing 4-position halogenated galactose and application thereof” (National University Corporation Hokkaido University, priority 2005, dated 2012)

T1: rat-derived α2,3-N-sialyltransferase (Rattus norvegicus, UniProt Q02734)
T1 construct: purchased Calbiochem
T1 sequence (Q02734 1-374): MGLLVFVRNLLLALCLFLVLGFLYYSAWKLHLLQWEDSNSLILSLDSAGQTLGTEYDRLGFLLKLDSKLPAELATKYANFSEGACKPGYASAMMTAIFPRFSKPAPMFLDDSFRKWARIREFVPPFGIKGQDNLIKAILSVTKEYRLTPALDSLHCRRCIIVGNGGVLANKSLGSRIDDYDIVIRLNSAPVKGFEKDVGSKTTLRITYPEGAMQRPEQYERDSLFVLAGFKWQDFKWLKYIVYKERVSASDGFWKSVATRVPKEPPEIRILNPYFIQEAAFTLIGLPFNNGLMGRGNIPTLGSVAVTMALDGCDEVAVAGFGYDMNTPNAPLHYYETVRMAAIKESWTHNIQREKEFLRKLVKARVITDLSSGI

T2: rat-derived α2,6-N-sialyltransferase (Rattus norvegicus, UniProt P13721)
T2 construct: purchased Calbiochem
T2 sequence (P13721 1-403): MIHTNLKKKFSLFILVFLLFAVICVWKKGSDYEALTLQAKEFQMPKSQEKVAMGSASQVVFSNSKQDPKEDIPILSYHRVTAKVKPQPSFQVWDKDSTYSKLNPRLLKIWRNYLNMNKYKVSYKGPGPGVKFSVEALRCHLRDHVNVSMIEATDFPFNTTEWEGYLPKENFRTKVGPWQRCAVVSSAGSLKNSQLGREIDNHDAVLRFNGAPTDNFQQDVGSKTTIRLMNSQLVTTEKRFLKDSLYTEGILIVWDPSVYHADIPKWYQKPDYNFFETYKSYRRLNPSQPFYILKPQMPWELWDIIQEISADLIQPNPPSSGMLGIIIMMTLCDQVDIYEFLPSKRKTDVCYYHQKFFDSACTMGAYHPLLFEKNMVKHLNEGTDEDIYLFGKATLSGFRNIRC

B1: rat-derived α2,6-N-sialyltransferase (Rattus norvegicus) (protein)
chain: T2 sequence (P13721 1-403)
B2: rat-derived α2,3-N-sialyltransferase (Rattus norvegicus) (protein)
chain: T1 sequence (Q02734 1-374)
B3: GalK: E. coli-derived galactokinase, purified enzyme liquid (protein, UniProt P0A6T3 2-382, looked up)
Galactokinase: SLKEKTQSLFANAFGYPATHTIQAPGRVNLIGEHTDYNDGFVLPCAIDYQTVISCAPRDDRKVRVMAADYENQLDEFSLDAPIVAHENYQWANYVRGVVKHLQLRNNSFGGVDMVISGNVPQGAGLSSSASLEVAVGTVLQQLYHLPLDGAQIALNGQEAENQFVGCNCGIMDQLISALGKKDHALLIDCRSLGTKAVSMPKGVAVVIINSNFKRTLVGSEYNTRREQCETGARFFQQPALRDVTIEEFNAVAHELDPIVAKRVRHILTENARTVEAASALEQGDLKRMGELMAESHASMRDDFEITVPQIDTLVEIVKAVIGDKGGVRMTGGGFGGCIVALIPEELVPAVQQAVAEQYEAKTGIKETFYVCKPSQGAGQC

What was measured:
[1] = molecular target: T1, rat-derived α2,3-N-sialyltransferase; assay: Kinetic analysis of α2,3-sialyltransfer reaction to 4MU-4F-LacNAc; assay type: biochemical; conditions: for Activity: α2,3-sialyltransferase
Protocol: (§1) The mixture was allowed to react at 25° C.
Precisely 60 minutes after initiation of the reaction, the reaction was terminated through addition of 80% acetonitrile (4 times in volume) and vigorous stirring. The reaction mixture was diluted, and the diluted product was analyzed through HPLC. […] Note that “1U” was defined as an enzyme amount which realizes sialylated sugar to form in an amount of 1 μmol/min under the above conditions.
The mixture was allowed to react at 25° C. for eight minutes.

[2] = molecular target: T2, rat-derived α2,6-N-sialyltransferase; assay: Kinetic analysis of α2,6-sialyltransfer reaction to 4MU-4F-LacNAc; assay type: biochemical; conditions: for Activity: α2,6-sialyltransferase
Protocol: as §1
Precisely 120 minutes after initiation of the reaction, the reaction was terminated through addition of 1M NaOH (⅕ times in volume). The reaction mixture was neutralized and diluted with an HPLC eluent, and the diluted product was analyzed through HPLC. […] Note that “1U” was defined as an enzyme amount which realizes formation of sialylated sugar in an amount of 1 μmol/min under the above conditions.
The mixture was allowed to react at 25° C. for 10 minutes.
The enzymatic activity values at respective concentrations are compared.

[3] = molecular target: T1, rat-derived α2,3-N-sialyltransferase; assay: Enzymatic α2,3-sialyltransfer reaction to pyridylaminated (PA) 4F-galactosylchitobiose, HPLC percent conversion; assay type: biochemical; conditions: 10 μM acceptor, 100 μM CMP-NeuAc, 100 mU/mL enzyme, 25° C.; percent conversion compared with PA galactosylchitobiose
Protocol: (§2) To a 10 mM HEPES-NaOH buffer (pH 7.5) containing 10 mM manganese chloride, 100 mM sodium chloride, 100 μM CMP-NeuAc, 0.02% (w/v) BSA, and 10 μM pyridylaminated (PA) 4F-galactosylated chitobiose, rat-derived α2,3-N-sialyltransferase (product of Calbiochem) (100 mU/mL-reaction mixture) was added, and the mixture was allowed to react at 25° C. In a similar manner, a similar mixture employing pyridylaminated (PA) galactosylated chitobiose as an acceptor was allowed to react as a control reaction.
An aliquot was sampled from the reaction mixture at hour 2.5 and hour 24 after initiation of the reaction. Finally, the reaction was terminated through addition of 10 mM sodium phosphate (pH 4.3) (9 times in volume) and vigorous stirring. The product was analyzed through HPLC employing a C30-UG-5 column. […] A fraction corresponding to each peak was collected and dried under reduced pressure. […] Mass analysis detected, in the reaction employing pyridylaminated (PA) 4F-galactosylchitobiose, an [M+H]^+ peak (m/z 959.45), thereby confirming formation of compound 17. Also, in the reaction employing pyridylaminated (PA) galactosyl chitobiose, an [M+H]^+ peak (m/z 957.31) was detected, thereby confirming formation of compound 18. […]

[4] = molecular target: T2, rat-derived α2,6-N-sialyltransferase; assay: Enzymatic α2,6-sialyltransfer reaction to pyridylaminated (PA) 4F-galactosylchitobiose, HPLC percent conversion; assay type: biochemical; conditions: 10 μM acceptor, 100 μM CMP-NeuAc, 40 mU/mL enzyme, 25° C.; percent conversion compared with PA galactosylchitobiose
Protocol: as §2, with “α2,6-N-sialyltransferase” for “α2,3-N-sialyltransferase”, “(40” for “(100”
An aliquot was sampled from the reaction mixture at hour 1, hour 2.5, hour 8, and hour 24 after initiation of the reaction. Finally, the reaction was terminated through addition of a mixture of 0.5M triethylamine-acetic acid (pH 7.3) and acetonitrile (25:75) (19 times in volume) and vigorous stirring. The product was analyzed through HPLC. […] Mass analysis detected an [M+H]^+ peak (m/z 659.74) attributed to compound 19, thereby confirming formation of compound 19. Also, in the control reaction employing UDP-Gal, an [M+H]^+ peak (m/z 657.74) attributed to compound 20 was detected through MALDI-TOF-MS, confirming formation of compound 20. […]

[5] = substrate: CC(=O)NC1C(O)[C@H](O[C@@H]2OC(CO)[C@H](O)[C@H](O)C2O)[C@H](CO)O[C@H]1Oc1ccc2c(C)cc(=O)oc2c1; assay: purified protein, by the assay type; conditions: 25° C., pH 7.5
[6] = substrate: CC(=O)NC1C(O)[C@H](O[C@@H]2OC(CO)[C@H](F)[C@H](O)C2O)[C@H](CO)O[C@H]1Oc1ccc2c(C)cc(=O)oc2c1; assay: purified protein, by the assay type; conditions: other: 1/[S]-1/v plotting, 200 μM CMP-NeuAc, 25° C., pH 7.5
[7] = Galactokinase (GalK) activity of the enzyme liquid; assay type: biochemical, E. coli; conditions: galactokinase activity of purified enzyme liquid, method by Takeda et al.
Protocol: E. coli (JM109 strain) (from Takara Bio) was transformed with a pTrc-galK plasmid (JP-A-2002-335988) in which a gene encoding E. coli-derived GalK has been inserted. The transformed cells were inoculated to a 2×YT medium (100 mL) containing 100 μg/mL ampicillin, followed by shake culturing at 37° C. When the number of the cells reached 1×10^8 cells/mL, isopropyl-p-thiogalactoside (IPTG) was added to the culture so as to adjust the final concentration to 0.2 mM, and shake culture was continued for further eight hours. After completion of culturing, cells were collected through centrifugation (9,000×g, 20 min) and suspended in a buffer (20 mM Tris-HCl (pH 7.5) and 1 mM magnesium chloride) (10 mL). The cells were disrupted through ultrasonication, and the product was centrifuged (20,000×g, 10 min), to thereby remove cell residues.
The thus-produced fraction was employed as an enzyme liquid in the following synthesis reactions. The galactokinase (GalK) activity of the enzyme liquid was determined (Table 1). In the present invention, GalK activity was determined through a method by Takeda et al. (JP-A-2002-335988).

[8] = other: rat-derived α2,6-sialyltransferase 40 mU/mL, 10 minutes, 1/[S]-1/v plotting
[9] = other: 1/[S]-1/v plotting, 200 μM CMP-NeuAc

Molecule | Activity ([1]; acceptor concentration 20 μM) | Activity ([1]; acceptor concentration 40 μM) | Activity ([1]; acceptor concentration 80 μM) | Activity ([1]; acceptor concentration 150 μM) | Activity ([2]; acceptor concentration 20 μM) | Activity ([2]; acceptor concentration 40 μM) | Activity ([2]; acceptor concentration 80 μM) | Activity ([2]; acceptor concentration 120 μM) | Activity ([2]; acceptor concentration 150 μM) | other results
CC(=O)NC1C(O)[C@H](O[C@@H]2OC(CO)[C@H](F)[C@H](O)C2O)[C@H](CO)O[C@H]1Oc1ccc2c(C)cc(=O)oc2c1 (some centres unmarked) [4MU-4F-LacNAc, 4-methylumbelliferyl 4F—N-acetyllactosamine] | 0.9972 mU/mL | 1.756 mU/mL | 3.214 mU/mL | 4.541 mU/mL | 0.07743 mU/mL | 0.1561 mU/mL | 0.3223 mU/mL | 0.4596 mU/mL | 0.6348 mU/mL | catalytic efficiency of α2,3-sialyltransferase relative to that with respect to 4MU-LacNAc ([1]; compared with 4MU-LacNAc): ≤ 6%; sialyltransferase activity of α2,6-sialyltransferase with respect to acceptor ([2]; compared with 4MU-LacNAc at respective concentrations): clearly decreased
CC(=O)NC1C(O)[C@H](O[C@@H]2OC(CO)[C@H](O)[C@H](O)C2O)[C@H](CO)O[C@H]1Oc1ccc2c(C)cc(=O)oc2c1 (some centres unmarked) [4MU-LacNAc, reference compound] | 16.20 mU/mL | 28.50 mU/mL | 45.36 mU/mL | 66.23 mU/mL | 0.8800 mU/mL | 1.667 mU/mL | 2.504 mU/mL | 3.734 mU/mL | 4.828 mU/mL | 
CC(=O)NC(CNc1ccccn1)[C@H](O)C(O[C@@H]1OC(CO)[C@@H](O[C@@H]2OC(CO)[C@H](F)[C@H](O)C2O)[C@H](O)C1NC(C)=O)C(O)CO (some centres unmarked) [pyridylaminated (PA) 4F-galactosylchitobiose] |  |  |  |  |  |  |  |  |  | reactivity of α2,3-sialyltransferase [3]: considerably decrease; reactivity of α2,6-sialyltransferase [4]: considerably decrease
B1 |  |  |  |  |  |  |  |  |  | Km [5, 8]: 217 µM; Vmax [5, 8]: 65.24 nmol/min/mg
B2 |  |  |  |  |  |  |  |  |  | Km [6]: 188 µM; Vmax [6]: 12.60 nmol/min/mg; Km [5, 9]: 129 µM; Vmax [5, 9]: 146.9 nmol/min/mg
B3 |  |  |  |  |  |  |  |  |  | Enzymatic activity [7]: 23.1 units/mg protein
